Reference: US20230158015A1, “DRUG COMBINATIONS FOR INHIBITING INFLAMMATION AND SRC KINASE ACTIVATION FOLLOWING INVASIVE SURGICAL PROCEDURES” (SINTETICA S.A., priority 2020, published 2023)

How the values were obtained:
[1] = tested on: Src phosphorylation at tyrosine 419; conditions: cited from earlier work
[2] = tested on: LPS-induced serum inflammatory cytokines; test: LPS-induced inflammation model, serum inflammatory cytokines (LEGENDplex, flow cytometry); assay type: in vivo, mouse; conditions: serum of treated mice
Description: (§1) C57BL/6J mice (6-8 weeks) were purchased from Charles River Laboratories (USA) and acclimatized for at least 1 week before use. All mice were housed in a pathogen-free facility. The mice received LPS for 24 hours. Following 24 hours, mice were treated either with lidocaine alone or methylnaltrexone alone or a combination of both, as shown in Table 1.
(§2) At the conclusion of the study, the blood and tissue samples were collected for further study. The serum was used to determine pro-inflammatory cytokines using the LEGENDplex™ mouse inflammation panel (BioLegend, USA) kit followed by flow cytometry. The lungs and spleen tissue samples were used for hematoxylin and eosin (H&E) staining and immunohistochemical analyses for immune cells, including macrophages and natural killer (NK) cells, B cells, T cells, and its subsets. For histopathology and immunohistochemistry (IHC), tissue samples were prepared by cutting 4-µm sections from the paraffin blocks. IHC staining was performed by methods described earlier. The images were captured using bright field microscopy (Nikon Microscope). Two independent investigators evaluated the H&E and all immunohistochemical staining. For slide scoring, each investigator assessed the tissues and gave a score of 0 (no expression) to 4+ (strong uniform expression) as described previously. The data were expressed either as the mean ± SD or mean ± SEM by using Graph Pad Prism software.
Gram-negative bacterial infections are the main cause of acute lung injury, and LPS, which is the main component of the Gram-negative bacteria cell wall, is the major stimulus for the release of inflammatory mediators. Therefore, we measured the effect of lidocaine alone, methylnaltrexone alone, or a combination of lidocaine and methylnaltrexone on LPS-induced serum inflammatory cytokines profiles. Mouse inflammatory cytokines were measured in serum of control and LPS-challenged mice treated with drugs as described in Table 1, using the LEGENDplex™ mouse inflammation panel (BioLegend, USA) kit followed by flow cytometry as per manufacturer’s specifications. […] However, serum tumor necrosis factor-alpha (TNF-α), monocyte chemoattractant protein 1 (MCP- 1), interleukin 10 (IL-10), interleukin 6 (IL-6), and interleukin 17A (IL-17A) levels were found decreased in mice challenged with LPS and treated with lidocaine and methylnaltrexone together (FIGS. 14C-G). IL-1, IL-6, IL-17A, MCP-1, and TNFα are pro- inflammatory cytokines associated with inflammatory signaling. Taken together, these findings indicate that combined treatment of lidocaine and methylnaltrexone has the potential to suppress inflammatory signaling.

p-Src / total Src [3] = test: Total Src and p-Src expression in MiaPaCa 2 human pancreatic cancer cell line (Western blot); assay type: cell-based; conditions: 10 µM lidocaine, 100 nM methylnaltrexone or both, one hour
Description: (§3) • P-Src-Tyr416 (GeneTex # GTX81151) 1:2000 in 5% bovine serum albumin, at room temperature, 4 hours • Total Src (CST # 2108S) 1:3000 in 5% bovine serum albumin, at room temperature, 4 hours
Example 11 evaluated the effect of 10 µM lidocaine (L), 100 nM methylnaltrexone (M) and the combination of 10 µM lidocaine + 100 nM methylnaltrexone (L+M) for 1 hour on total Src and p-Src expression in a human pancreatic cancer cell line (MiaPaCa 2). Experimental conditions were identical to Example 10.

p-Src / total Src [4] = test: Total Src and p-Src expression in AsPc 1 human pancreatic cancer cell line (Western blot); assay type: cell-based; conditions: 10 µM lidocaine, 100 nM methylnaltrexone or both, one hour
Description: Example 10 evaluated the effect of 10 µM lidocaine (L), 100 nM methylnaltrexone (M) and the combination of 10 µM lidocaine + 100 nM methylnaltrexone (L+M) for 1 hour on total Src and p-Src expression in a human pancreatic cancer cell line (AsPc 1).
as §3

[5] = tested on: immune cells in lungs and spleen of LPS-challenged mice; test: LPS-induced inflammation model, IHC staining of immune cells in lungs and spleen; assay type: in vivo, mouse; conditions: lungs and spleen sections
Description: as §1
as §2, with “The data were expressed either as the mean ± SD or mean ± SEM by using Graph Pad Prism software.” left out

p-Src protein = test: p-Src inhibition by increasing lidocaine doses in human pancreatic cancer cells (Western blot); assay type: cell-based; conditions: 30 minutes of treatment, 0-100 µM tested
Description: On day 1, pancreatic cancer cells were cultured until 300,000 cells per well in a 6 well plate were obtained. On day 2, the cells were treated with 0, 0.5, 1,5, 10, 15, 30, 50 and 100 µM lidocaine for 30 minutes. Plates were then collected and washed with phosphate buffered saline and stored at -80° C. Cells were subsequently lysed with 100 µl of radioimmunoprecipitation assay buffer with protease and phosphatase buffers.
Protein estimation was done using a Bradford assay under the following conditions: • A Western Blot was stripped with 6 M guanidine hydrochloride after phosphor-Src protein blocking to probe with total Src protein. • 10% SDS-PAGE 10 well Blocking: 5% bovine serum albumin for p-Src blot. • P-Src-Tyr416 (GeneTex GTX81151) Rb: 1:1000 in 5% bovine serum albumin, Overnight. • Total Src (Cell Signaling Technology 2108S ) Rb mAb 1:1000 overnight in 5% milk. • GAPDH (Invitrogen# AM4300) : 1:5000 in 5% milk overnight. • Wash: 4x for 5 minutes each with 1x TBST. • Developed using 50% femto for the p-Src protein and homemade ECL substrate for total Src and GAPDH protein.

[6] = tested on: LPS-challenged C57BL/6 mice; test: LPS-induced inflammation model, H&E histopathology of lungs and spleen; assay type: in vivo, mouse
Description: as §1, §2

In the case of `CCN(CC)CC(=O)Nc1c(C)cccc1C` [lidocaine, 2-diethylaminoaceto-2′,6′-xylidide], the “decrease in TNF-α-induced Src phosphorylation” value ([1]; co-incubation with TNF-α and 10 µM lidocaine, p=0.012) is listed as 73%, the “decrease in Src phosphorylation at tyrosine 419” value ([1]; lidocaine 1 nm-100 µM, 20 minutes, Kruskal-Wallis p=0.146) is listed as “did not reach statistical significance” and the “serum interferon-gamma (IFNγ) level” value [2] is listed as “insignificant changes”. For the same molecule, the “serum interleukin 1 alpha (IL-1α) level” value [2] was “insignificant changes”, the p-Src (p-Src / total Src [3]) was “attenuated p-Src” and the p-Src activity (p-Src / total Src [4]) was “attenuated p-Src activity”. The “F4/80 positive area (macrophages)” value [5] was “partially decreased”, the “dose from which the level of p-Src protein is reduced” value (p-Src protein) was no less than 10 µM and the “H&E staining, histopathology of lungs” value ([6]; LPS challenged mice, lungs) was “perivascular edema and accumulation of mixed cell infiltration within blood, and lymphatic vessels”. The “histological examination of spleen” value ([6]; LPS challenged mice, spleen) was “increased number of erythrocytes in the red pulp, along with mild edema” and the “LPS-induced inflammation (overall conclusion)” value ([6]; mouse model, drug alone) was “partially mitigate”.
